Columns and labels:
[1] = molecular target: BRD2 (Homo sapiens (Human), UniProt P25440); assay: TR-FRET in-vitro binding assay for BRD2; conditions: 45 nM His-Brd2(60-472), acetyl-histone H4 (AcK 5, 8, 12, 16) peptide
Summary of the method: (§1)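 Binding is detected by TR-FRET following incubation for 35 minutes at 30° C.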

[2] = molecular target: BRD4 (Homo sapiens (Human), UniProt O60885); assay: TR-FRET in-vitro binding assay for BRD4; conditions: 45 nM His-Brd4(44-477), acetyl-histone H4 (AcK 5, 8, 12, 16) peptide
Summary of the method: as §1

[3] = system: MV-4-11; assay: Cell growth inhibition assay (CellTiter-Glo), MV-4-11; format: cell-based, human; conditions: MV-4-11 cells, 4 days; for GI50: Homo sapiens, MV4-11, 96 h, half-maximal growth inhibition; for MV-4-11 TGI: total growth inhibition
Summary of the method: (§2)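 Seed cells in their own media; add compound as 3-fold dilutions from 10 μM (0.1% DMSO final). Incubate 4 days at 37 °C, 5% CO2, then add CTG and read luminescence. Subtract no-cell background, correct to a day 0 plate, and fit IC50 and TGI.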

[4] = system: K-562; assay: Cell growth inhibition assay (CellTiter-Glo), K-562; format: cell-based, human; conditions: K-562 cells, 4 days; for GI50: Homo sapiens, K562, 96 h, half-maximal growth inhibition; for K-562 TGI: total growth inhibition
Summary of the method: as §2

[5] = molecular target: BRD3 (Homo sapiens (Human), UniProt Q15059); assay: TR-FRET in-vitro binding assay for BRD3; conditions: 45 nM His-Brd3(20-477), acetyl-histone H4 (AcK 5, 8, 12, 16) peptide
Chain of BRD3 (Q15059 20-477): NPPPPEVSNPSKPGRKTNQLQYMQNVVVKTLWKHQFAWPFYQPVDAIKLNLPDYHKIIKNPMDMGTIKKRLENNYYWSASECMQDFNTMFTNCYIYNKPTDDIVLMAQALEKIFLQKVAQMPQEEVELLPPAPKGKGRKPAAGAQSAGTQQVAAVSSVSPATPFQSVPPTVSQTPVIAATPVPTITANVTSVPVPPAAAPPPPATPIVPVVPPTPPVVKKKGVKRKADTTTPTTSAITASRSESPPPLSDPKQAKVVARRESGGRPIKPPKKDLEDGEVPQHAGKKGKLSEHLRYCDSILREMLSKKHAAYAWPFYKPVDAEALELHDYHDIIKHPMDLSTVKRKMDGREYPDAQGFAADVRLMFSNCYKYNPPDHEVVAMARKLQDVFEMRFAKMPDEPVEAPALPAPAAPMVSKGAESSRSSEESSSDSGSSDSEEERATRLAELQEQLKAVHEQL
Summary of the method: as §1

[6] = molecular target: CREBBP (Homo sapiens (Human), UniProt Q92793); assay: AlphaScreen in-vitro binding assay for CREBBP; conditions: 324 nM His-CREBBP (1081-1197), acetyl-histone H4 (AcK 5, 8, 12) peptide
Chain of CREBBP (Q92793 1081-1197): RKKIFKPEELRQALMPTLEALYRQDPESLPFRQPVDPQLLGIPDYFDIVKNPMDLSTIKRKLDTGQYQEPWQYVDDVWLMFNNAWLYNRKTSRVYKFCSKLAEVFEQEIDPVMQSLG
Summary of the method: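 IC50 values were derived by non-linear regression of percent inhibition across 8 compound concentrations. Protein was His-tagged CREBBP bromodomain (1081-1197), peptide acetyl-histone H4 (AcK 5, 8, 12), in HEPES pH 7.5 buffer. Read-out was AlphaScreen with Ni-chelate acceptor and streptavidin donor beads, 35 min at 30° C then 60 min at RT.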

[7] = system: THP-1; assay: Cell growth inhibition assay (CellTiter-Glo), THP-1; format: cell-based, human; conditions: THP-1 cells, 4 days; for GI50: Homo sapiens, 96 h, half-maximal growth inhibition; for THP-1 TGI: total growth inhibition
Summary of the method: as §2

Chain of BRD2 (P25440 60-472): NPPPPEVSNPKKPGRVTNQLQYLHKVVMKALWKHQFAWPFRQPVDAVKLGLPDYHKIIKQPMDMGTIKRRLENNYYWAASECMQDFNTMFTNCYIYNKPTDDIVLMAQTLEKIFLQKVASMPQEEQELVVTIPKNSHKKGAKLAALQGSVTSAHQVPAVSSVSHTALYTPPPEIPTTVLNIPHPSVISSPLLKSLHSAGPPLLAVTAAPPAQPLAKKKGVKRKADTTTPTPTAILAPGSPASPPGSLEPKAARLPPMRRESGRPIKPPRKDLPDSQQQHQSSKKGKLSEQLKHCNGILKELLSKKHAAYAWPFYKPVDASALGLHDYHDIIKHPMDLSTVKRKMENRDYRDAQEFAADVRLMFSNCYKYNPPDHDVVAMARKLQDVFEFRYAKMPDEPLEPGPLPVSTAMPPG

| SMILES | IC50 [1] [µM] | IC50 [2] [µM] | GI50 [3] [µM] | GI50 [4] [µM] | IC50 [5] [µM] | IC50 [6] [µM] | GI50 [7] [µM] | MV-4-11 TGI [3] [µM] | K-562 TGI [4] [µM] | THP-1 TGI [7] [µM] |
| --- | --- | --- | --- | --- | --- | --- | --- | --- | --- | --- |
| Cn1ccc2c1C(c1ccc(F)cc1)N(c1cc(Cl)c(=O)n(C)c1)C2=O (stereo not shown) [Example 88, 5-(5-chloro-1-methyl-6-oxo-1,6-dihydropyridin-3-yl)-6-(4-fluorophenyl)-1-methyl-5,6-dihydropyrrolo[3,4-b]pyrrol-4(1H)-one] | 0.287 | 0.33 | 0.21 | 0.715 | 0.19 | 7.6 | 0.321 | 0.359 | >10 | 0.683 |
| Cn1ccc2c1C(c1ccc(C#N)cc1)N(c1cc(Cl)c(=O)n(C)c1)C2=O (stereo not shown) [Example 89, 4-(5-(5-chloro-1-methyl-6-oxo-1,6-dihydropyridin-3-yl)-1-methyl-4-oxo-1,4,5,6-tetrahydropyrrolo[3,4-b]pyrrol-6-yl)benzonitrile] | 0.23 | 0.357 | 0.403 | 1.91 | 0.21 | 10.7 | 0.598 | 0.785 | >10 | 2.015 |
| Cn1ccc2c1C(c1ccc(Cl)c(F)c1)N(c1cc(Cl)c(=O)n(C)c1)C2=O (stereo not shown) [Example 90, 5-(5-chloro-1-methyl-6-oxo-1,6-dihydropyridin-3-yl)-6-(4-chloro-3-fluorophenyl)-1-methyl-5,6-dihydropyrrolo[3,4-b]pyrrol-4(1H)-one] | 0.265 | 0.267 | 0.222 | 0.618 | 0.196 | 1.45 | 0.218 | 0.4075 | >10 | 0.4465 |

Molecules with a lower IC50 [1], results first:

| IC50 [1] [µM] | IC50 [2] [µM] | GI50 [3] [µM] | GI50 [4] [µM] | IC50 [5] [µM] | IC50 [6] [µM] | GI50 [7] [µM] | SMILES | MV-4-11 TGI [3] [µM] | K-562 TGI [4] [µM] | THP-1 TGI [7] [µM] |
| --- | --- | --- | --- | --- | --- | --- | --- | --- | --- | --- |
| 0.108 | 0.12 | 0.0753 | 0.266 | 0.0763 | 4.1 | 0.0839 | Cc1ccc(C2c3c(ccn3C)C(=O)N2c2cc(Cl)c(=O)n(C)c2)cc1 (stereo not shown) [Example 87, 5-(5-chloro-1-methyl-6-oxo-1,6-dihydropyridin-3-yl)-1-methyl-6-(p-tolyl)-5,6-dihydropyrrolo[3,4-b]pyrrol-4(1H)-one] | 0.151 | >10 | 0.255 |
| 0.015 | 0.013 | 0.00254 | 0.0274 | 0.014 | > 37 | 0.00312 | CNC(=O)c1cn(C)c2c1C(=O)N(c1cc(C)c3nnn(C)c3n1)C2c1ccc(Cl)cc1 (stereo not shown) [Example 93, 6-(4-chlorophenyl)-5-(3,7-dimethyl-3H-[1,2,3]triazolo[4,5-b]pyridin-5-yl)-N,1-dimethyl-4-oxo-1,4,5,6-tetrahydropyrrolo[3,4-b]pyrrole-3-carboxamide] | 0.01049 | >10 | 0.01124 |
| 0.017 | 0.012 | 0.00819 | 0.0347 | 0.013 | > 37 | 0.0124 | Cc1cc(N2C(=O)c3c(C(=O)N(C)C)cn(C)c3C2c2ccc(Cl)cc2)nc2c1nnn2C (stereo not shown) [Example 94, 6-(4-chlorophenyl)-5-(3,7-dimethyl-3H-[1,2,3]triazolo[4,5-b]pyridin-5-yl)-N,N,1-trimethyl-4-oxo-1,4,5,6-tetrahydropyrrolo[3,4-b]pyrrole-3-carboxamide] | 0.02195 | >10 | 0.02985 |
| 0.034 | 0.016 | 0.0314 | 0.123 | 0.026 | > 37 | 0.0348 | Cc1cc(N2C(=O)c3c(NC(=O)OC(C)(C)C)cn(C)c3C2c2ccc(Cl)cc2)nc2c1nnn2C (stereo not shown) [Example 95, Tert-butyl (6-(4-chlorophenyl)-5-(3,7-dimethyl-3H-[1,2,3]triazolo[4,5-b]pyridin-5-yl)-1-methyl-4-oxo-1,4,5,6-tetrahydropyrrolo[3,4-b]pyrrol-3-yl)carbamate] | 0.0631 | >10 | 0.0815 |
